Test results published in ChEMBL document CHEMBL1146209, “In-silico fragment-based identification of novel angiogenesis inhibitors” (Bioorg Med Chem Lett, 2007).

Test system: HUVEC
Assay: Cytotoxicity against HUVEC after 24 hrs by MTT assay
Assay type: cell-based
Details: Homo sapiens

Row | Structure (SMILES) | IC50 [µM]
1 | O=C(O)c1ccc(Nc2ccnc3cc(Cl)ccc23)cc1O | 90
2 | O=S(=O)(Nc1nccs1)c1ccc(Nc2ccnc3cc(Cl)ccc23)cc1 | 74
3 | O=C1c2ccccc2C(=O)c2c1oc1c2ccc2ccccc21 | 63
4 | COc1ccc(CC(N)C(=O)N(C)C2C(CO)OC(n3cnc4c(N(C)C)ncnc43)C2O)cc1 (centres undefined) | 100
5 | Clc1ccc2c(NC3CCC(NC4CCCCC4)CC3)ccnc2c1 (centres undefined) | 13
6 | Clc1ccc(Nc2ccnc3cc(Cl)ccc23)cc1 | 88
7 | O=c1c(-c2ccc(O)cc2)coc2cc(O)cc(O)c12 [GENISTEIN] | 88
8 | Oc1ccc(Nc2ccnc3cc(Cl)ccc23)cc1 | 82
9 | O=C1c2ccccc2C(=O)C(CCCc2ccc(Oc3ccccc3)cc2)C1O (centres undefined) | 75
